“Also recorded” adds a separate entry of the source.
Columns and labels:
Assay in all cases: AHC metabolism by recombinant cDNA-expressed CYP isoform
Assay type in all cases: in vitro ADME
CYP1A1 = target: T1, CYP1A1 (Homo sapiens, UniProt P04798); settings: 10 µM AHC, 10 pmol recombinant CYP, NGS, 37 °C, 60 min
T1 construct: purchased Corning Gentest
T1 sequence (P04798 1-512): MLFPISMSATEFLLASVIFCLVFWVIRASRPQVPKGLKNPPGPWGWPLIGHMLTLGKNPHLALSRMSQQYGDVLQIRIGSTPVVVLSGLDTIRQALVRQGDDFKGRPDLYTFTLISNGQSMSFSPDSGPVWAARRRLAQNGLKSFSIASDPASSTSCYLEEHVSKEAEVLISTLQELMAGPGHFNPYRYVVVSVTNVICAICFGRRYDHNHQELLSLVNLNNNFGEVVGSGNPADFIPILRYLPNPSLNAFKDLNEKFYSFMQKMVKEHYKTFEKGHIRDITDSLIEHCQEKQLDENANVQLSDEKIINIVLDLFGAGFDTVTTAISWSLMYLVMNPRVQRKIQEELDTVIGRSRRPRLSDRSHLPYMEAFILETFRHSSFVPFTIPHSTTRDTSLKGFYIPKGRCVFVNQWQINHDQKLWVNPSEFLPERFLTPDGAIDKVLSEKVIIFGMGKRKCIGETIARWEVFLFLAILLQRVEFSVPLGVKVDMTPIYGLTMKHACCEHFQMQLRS
Description: (§1) To identify the metabolic enzymes for AHC, 10 µM AHC was incubated with 10 pmol of human recombinant cDNA-expressed CYP isoforms (CYP1A1, 1A2, 2A6, 2B6, 2C8, 2C9, 2C19, 2D6, 2E1, 3A4, and 3A5) in the presence of 0.1 M potassium phosphate buffer (pH 7.4). The reaction was initiated by adding 100 µL of NGS at 37 °C for 60 min. Then, the mixture was suspended by adding 400 µL of ice-cold 100% ACN. Following centrifugation at 15,700× g for 10 min at 4 °C, the supernatant was transferred to a new tube and evaporated using a speed-vacuum concentrator. Next, the dried sample was diluted with 100 µL of 20% MeOH containing 0.1% formic acid, and a 5 µL aliquot was injected into a C18 column for LC–MS/MS analysis.
(§2) To identify the CYP isoforms involved in AHC metabolism, AHC (10 µM) was incubated with eleven cDNA-expressed recombinant CYP isoforms (CYP1A1, CYP1A2, CYP2A6, CYP2B6, CYP2C8, CYP2C9, CYP2C19, CYP2D6, CYP2E1, CYP3A4, and CYP3A5) in the presence of the NGS. […] However, the metabolites of AHC were not observed from reactions with other CYPs. Thus, in the metabolism of AHC in HLMs, CYP3A4 was involved as the main enzyme, and four types of metabolites were generated.

CYP1A2 = target: T2, CYP1A2 (Homo sapiens, UniProt P05177); settings: 10 µM AHC, 10 pmol recombinant CYP, NGS, 37 °C, 60 min
T2 construct: purchased Corning Gentest
T2 sequence (P05177 1-516): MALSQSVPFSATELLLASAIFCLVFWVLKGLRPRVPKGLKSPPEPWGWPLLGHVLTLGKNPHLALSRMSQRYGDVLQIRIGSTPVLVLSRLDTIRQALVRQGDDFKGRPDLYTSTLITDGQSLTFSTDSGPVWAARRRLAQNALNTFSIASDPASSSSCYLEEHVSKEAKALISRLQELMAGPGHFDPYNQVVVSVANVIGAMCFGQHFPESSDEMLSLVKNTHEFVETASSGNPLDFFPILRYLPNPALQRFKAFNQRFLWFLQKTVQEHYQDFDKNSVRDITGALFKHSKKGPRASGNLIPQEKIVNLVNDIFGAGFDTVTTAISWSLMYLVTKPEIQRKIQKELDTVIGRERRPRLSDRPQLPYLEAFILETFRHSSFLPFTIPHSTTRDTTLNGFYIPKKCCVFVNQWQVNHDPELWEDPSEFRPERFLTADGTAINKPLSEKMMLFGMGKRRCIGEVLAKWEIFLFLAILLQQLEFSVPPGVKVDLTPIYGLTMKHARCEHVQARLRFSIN
Description: as §1, §2

CYP2A6 = target: T3, CYP2A6 (Homo sapiens, UniProt P11509); settings: 10 µM AHC, 10 pmol recombinant CYP, NGS, 37 °C, 60 min
T3 construct: purchased Corning Gentest
T3 sequence (P11509 1-494): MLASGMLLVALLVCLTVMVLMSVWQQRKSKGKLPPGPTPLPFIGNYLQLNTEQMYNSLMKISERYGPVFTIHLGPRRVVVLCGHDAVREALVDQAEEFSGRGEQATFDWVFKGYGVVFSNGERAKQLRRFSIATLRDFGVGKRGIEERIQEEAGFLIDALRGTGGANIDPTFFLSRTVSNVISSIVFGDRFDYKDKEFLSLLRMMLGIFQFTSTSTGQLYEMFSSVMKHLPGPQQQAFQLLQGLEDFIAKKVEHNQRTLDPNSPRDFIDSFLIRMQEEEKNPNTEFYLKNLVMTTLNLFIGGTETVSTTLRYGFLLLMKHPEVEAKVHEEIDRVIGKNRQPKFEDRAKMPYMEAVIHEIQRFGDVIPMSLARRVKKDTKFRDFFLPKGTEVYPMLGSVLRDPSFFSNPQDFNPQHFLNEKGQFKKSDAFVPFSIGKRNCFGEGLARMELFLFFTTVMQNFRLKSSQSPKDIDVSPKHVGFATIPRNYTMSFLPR
Description: as §1, §2

CYP2C8 = target: T4, CYP2C8 (Homo sapiens, UniProt P10632); settings: 10 µM AHC, 10 pmol recombinant CYP, NGS, 37 °C, 60 min
T4 construct: purchased Corning Gentest
T4 sequence (P10632 1-490): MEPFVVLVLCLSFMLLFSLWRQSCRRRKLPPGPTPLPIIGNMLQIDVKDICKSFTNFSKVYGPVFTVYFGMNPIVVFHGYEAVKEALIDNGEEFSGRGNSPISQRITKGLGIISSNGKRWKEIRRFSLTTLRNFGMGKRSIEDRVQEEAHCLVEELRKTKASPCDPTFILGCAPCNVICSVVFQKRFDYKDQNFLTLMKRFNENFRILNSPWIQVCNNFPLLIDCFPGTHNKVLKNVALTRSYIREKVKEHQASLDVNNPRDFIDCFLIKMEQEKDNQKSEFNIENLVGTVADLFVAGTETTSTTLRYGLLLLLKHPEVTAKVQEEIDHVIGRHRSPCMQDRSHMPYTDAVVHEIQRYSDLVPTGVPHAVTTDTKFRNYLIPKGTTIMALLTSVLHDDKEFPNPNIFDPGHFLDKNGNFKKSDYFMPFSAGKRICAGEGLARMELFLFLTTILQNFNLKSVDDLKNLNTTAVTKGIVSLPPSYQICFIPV
Description: as §1, §2

CYP2C9 = target: T5, CYP2C9 (Homo sapiens, UniProt P11712); settings: 10 µM AHC, 10 pmol recombinant CYP, NGS, 37 °C, 60 min
T5 construct: purchased Corning Gentest
Description: as §1, §2

CYP2D6 = target: T6, CYP2D6 (Homo sapiens, UniProt P10635); settings: 10 µM AHC, 10 pmol recombinant CYP, NGS, 37 °C, 60 min
T6 construct: purchased Corning Gentest
Description: as §1, §2

CYP2E1 = target: T7, CYP2E1 (Homo sapiens, UniProt P05181); settings: 10 µM AHC, 10 pmol recombinant CYP, NGS, 37 °C, 60 min
T7 construct: purchased Corning Gentest
Description: as §1, §2

CYP3A4 = target: T8, CYP3A4 (Homo sapiens, UniProt P08684); settings: 10 µM AHC, 10 pmol recombinant CYP3A4, NGS, 37 °C, 60 min
T8 construct: purchased Corning Gentest
Description: as §1, §2

T8 sequence (P08684 whole entry): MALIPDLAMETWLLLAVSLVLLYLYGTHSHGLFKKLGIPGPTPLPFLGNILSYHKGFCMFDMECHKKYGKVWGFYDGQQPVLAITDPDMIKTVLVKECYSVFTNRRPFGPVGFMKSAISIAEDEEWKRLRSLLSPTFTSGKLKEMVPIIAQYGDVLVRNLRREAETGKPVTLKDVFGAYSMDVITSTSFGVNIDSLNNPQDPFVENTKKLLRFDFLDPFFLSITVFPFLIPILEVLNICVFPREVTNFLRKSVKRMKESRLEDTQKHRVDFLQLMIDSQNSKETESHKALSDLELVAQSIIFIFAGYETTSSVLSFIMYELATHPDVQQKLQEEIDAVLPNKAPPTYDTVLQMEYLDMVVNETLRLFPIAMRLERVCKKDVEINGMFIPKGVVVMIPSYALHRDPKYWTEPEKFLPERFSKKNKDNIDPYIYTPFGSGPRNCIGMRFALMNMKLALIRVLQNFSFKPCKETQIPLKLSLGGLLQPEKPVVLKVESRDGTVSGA
T5 sequence (P11712 whole entry): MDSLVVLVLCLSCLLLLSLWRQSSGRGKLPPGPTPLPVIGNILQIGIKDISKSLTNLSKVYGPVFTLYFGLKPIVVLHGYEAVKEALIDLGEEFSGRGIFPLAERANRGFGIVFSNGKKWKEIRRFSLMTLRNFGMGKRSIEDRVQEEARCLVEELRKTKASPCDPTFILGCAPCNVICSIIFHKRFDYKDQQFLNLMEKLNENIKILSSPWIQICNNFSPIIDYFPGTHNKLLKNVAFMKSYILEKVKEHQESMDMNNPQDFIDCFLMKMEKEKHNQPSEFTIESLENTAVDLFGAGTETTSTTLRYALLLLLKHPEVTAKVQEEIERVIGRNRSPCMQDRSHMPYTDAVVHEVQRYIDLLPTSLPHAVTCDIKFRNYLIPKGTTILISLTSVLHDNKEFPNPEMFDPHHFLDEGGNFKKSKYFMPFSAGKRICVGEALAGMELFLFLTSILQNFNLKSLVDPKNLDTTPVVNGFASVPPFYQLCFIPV
T7 sequence (P05181 whole entry): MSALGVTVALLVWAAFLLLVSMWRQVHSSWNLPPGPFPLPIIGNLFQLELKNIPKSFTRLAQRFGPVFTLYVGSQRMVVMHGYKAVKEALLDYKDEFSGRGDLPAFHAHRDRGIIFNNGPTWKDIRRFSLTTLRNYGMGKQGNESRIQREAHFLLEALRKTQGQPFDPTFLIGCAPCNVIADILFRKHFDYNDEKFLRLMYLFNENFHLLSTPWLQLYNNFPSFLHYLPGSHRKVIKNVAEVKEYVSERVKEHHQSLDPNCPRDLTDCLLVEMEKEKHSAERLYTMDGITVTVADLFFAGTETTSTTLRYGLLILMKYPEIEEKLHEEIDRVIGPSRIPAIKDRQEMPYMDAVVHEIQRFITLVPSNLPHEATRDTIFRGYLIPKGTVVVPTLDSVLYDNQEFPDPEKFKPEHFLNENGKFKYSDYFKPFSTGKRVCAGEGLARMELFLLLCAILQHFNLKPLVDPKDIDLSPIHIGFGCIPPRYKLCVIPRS
T6 sequence (P10635 whole entry): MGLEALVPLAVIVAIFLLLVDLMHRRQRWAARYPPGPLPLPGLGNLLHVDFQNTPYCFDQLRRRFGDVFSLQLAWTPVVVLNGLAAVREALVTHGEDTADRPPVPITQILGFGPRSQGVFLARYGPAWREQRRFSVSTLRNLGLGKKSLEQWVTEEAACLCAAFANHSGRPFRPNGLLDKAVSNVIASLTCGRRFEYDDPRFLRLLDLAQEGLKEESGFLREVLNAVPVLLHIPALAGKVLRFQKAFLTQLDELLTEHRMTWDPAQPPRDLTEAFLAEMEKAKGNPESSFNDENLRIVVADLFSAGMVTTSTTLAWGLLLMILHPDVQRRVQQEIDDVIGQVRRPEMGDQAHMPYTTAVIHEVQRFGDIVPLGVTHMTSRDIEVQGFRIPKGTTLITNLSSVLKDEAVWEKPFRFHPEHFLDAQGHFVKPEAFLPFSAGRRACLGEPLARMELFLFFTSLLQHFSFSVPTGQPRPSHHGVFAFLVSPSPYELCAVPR

CC(=O)O[C@@H]1[C@@H](C)CC[C@]2(O)[C@]3(C)CC(=O)O[C@]12[C@@]1(O)C(C)=C(C(C)C)C[C@@]31O [AHC, anhydrocinnzeylanine]
metabolites of AHC from reaction with CYP1A1 (CYP1A1): not observed | metabolites of AHC from reaction with CYP1A2 (CYP1A2): not observed | metabolites of AHC from reaction with CYP2A6 (CYP2A6): not observed | metabolites of AHC from reaction with CYP2C8 (CYP2C8): not observed | metabolites of AHC from reaction with CYP2C9 (CYP2C9): not observed | metabolites of AHC from reaction with CYP2D6 (CYP2D6): not observed | metabolites of AHC from reaction with CYP2E1 (CYP2E1): not observed | metabolism of AHC by CYP3A4 (CYP3A4): major CYP responsible for the metabolism of AHC; also recorded: predominantly metabolized by CYP3A4

— article PMC8400920, “Metabolism of Diterpenoids Derived from the Bark of Cinnamomum cassia in Human Liver Microsomes” (Pharmaceutics, 2021)
